The nature of data set [1]: 1 M HCl (acid hydrolysis). Conditions: 37 °C (24 h) and 80 °C (12 h), up to 96 h (time course, Figure 2C); 24 h at 37 °C; 12 h at 80 °C.
A short description of data set [2]: 1 M NaOH (base hydrolysis). Conditions: 37 °C (24 h) and 80 °C (12 h), up to 96 h (time course, Figure 2D); 24 h at 37 °C; 12 h at 80 °C.
A short description of the next data set: HCl (1 M). Conditions: 80 °C for 12 h and 37°C for 24 h, up to 96 h.
The nature of data set [3]: 30% (v/v) hydrogen peroxide (H2O2). Conditions: 37 °C for 24 h and 80 °C for 12 h, up to 24 h.

Entries after “also recorded” stand apart in the source; their conditions may differ.

Take “HELM PEPTIDE1{[Cc1cc(O)cc(C)c1C[C@H](N)C(=O)[*:2]].[dK].F.F.K.K.P.F.[CC(C)(C)[C@H](N[*:1])C(=O)[*:2]].L}$$$$V2.0 (N-terminus assumed; SMILES Cc1cc(O)cc(C)c1C[C@H](N)C(=O)N[C@H](CCCCN)C(=O)N[C@@H](Cc1ccccc1)C(=O)N[C@@H](Cc1ccccc1)C(=O)N[C@@H](CCCCN)C(=O)N[C@@H](CCCCN)C(=O)N1CCC[C@H]1C(=O)N[C@@H](Cc1ccccc1)C(=O)N[C@H](C(=O)N[C@@H](CC(C)C)C(=O)O)C(C)(C)C)”: the values for the fragment found result in data set [1] and in data set [2] were “compound H—Phe-Lys-Lys-Pro-Phe-Tle-Leu; also recorded: compound K—Pro-Phe-Tle” and “compound H—Phe-Lys-Lys-Pro-Phe-Tle-Leu; also recorded: compound K—Pro-Phe-Tle; also recorded: compound J (Pro-Phe-Tle-Leu)”, respectively.

For “HELM PEPTIDE1{[Cc1cc(O)cc(C)c1C[C@H](N)C(=O)[*:2]].[dK].F.F.K.K.P.F.I.L}$$$$V2.0 (N-terminus assumed; SMILES CC[C@H](C)[C@H](NC(=O)[C@H](Cc1ccccc1)NC(=O)[C@@H]1CCCN1C(=O)[C@H](CCCCN)NC(=O)[C@H](CCCCN)NC(=O)[C@H](Cc1ccccc1)NC(=O)[C@H](Cc1ccccc1)NC(=O)[C@@H](CCCCN)NC(=O)[C@@H](N)Cc1c(C)cc(O)cc1C)C(=O)N[C@@H](CC(C)C)C(=O)O)”, the cleaved bond result in the data set “HCl (1 M)” is “Phe-Ile9; also recorded: D-Lys2-Phe”; in data set [3], “Dmt1-D-Lys2”.

(Values after PMC9500858 (International Journal of Molecular Sciences, 2022).)
